Results: ChEMBL document CHEMBL4052601, “Glycybridins A-K, Bioactive Phenolic Compounds from Glycyrrhiza glabra” (J Nat Prod, 2017)

Tests used:
MCF7 = assay: Antiproliferative activity against human MCF7 cells at 10 uM after 24 hrs by MTS assay relative to control; assay type: functional; details: MCF7, 24 h
SW480 = assay: Antiproliferative activity against human SW480 cells at 10 uM after 24 hrs by MTS assay relative to control; assay type: functional; details: SW480, 24 h
[1] = molecular target: T1, Tyrosinase (Homo sapiens) (UniProt P14679); details: at 10 µM;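 also: tyrosinase of unspecified origin acting on L-tyrosine, compound preincubated with enzyme for 15 min before adding substrate, inhibition expressed versus control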
T1 sequence (whole entry): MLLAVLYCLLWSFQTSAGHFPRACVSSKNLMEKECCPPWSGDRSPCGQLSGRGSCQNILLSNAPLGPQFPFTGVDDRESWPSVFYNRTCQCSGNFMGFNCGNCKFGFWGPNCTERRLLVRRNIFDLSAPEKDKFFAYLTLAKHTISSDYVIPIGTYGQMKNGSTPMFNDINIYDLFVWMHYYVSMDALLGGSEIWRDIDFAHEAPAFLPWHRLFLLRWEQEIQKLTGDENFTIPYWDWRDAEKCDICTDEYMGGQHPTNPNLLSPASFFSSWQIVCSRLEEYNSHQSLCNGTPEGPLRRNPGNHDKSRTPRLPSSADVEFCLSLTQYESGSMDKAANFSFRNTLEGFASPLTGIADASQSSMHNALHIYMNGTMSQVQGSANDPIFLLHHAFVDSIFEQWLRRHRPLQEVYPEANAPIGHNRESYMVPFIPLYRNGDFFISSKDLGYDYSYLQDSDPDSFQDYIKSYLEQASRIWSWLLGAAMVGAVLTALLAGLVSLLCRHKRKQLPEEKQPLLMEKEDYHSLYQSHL
Description: Inhibition of tyrosinase (unknown origin) using L-tyrosine as substrate at 10 uM preincubated for 15 mins followed by substrate addition relative to control

[2] = molecular target: T2, Tyrosine-protein phosphatase non-receptor type 1 (Homo sapiens) (UniProt P18031); assay: (§1) Inhibition of recombinant human PTP1B using pNPP as substrate after 30 mins
T2 sequence (whole entry): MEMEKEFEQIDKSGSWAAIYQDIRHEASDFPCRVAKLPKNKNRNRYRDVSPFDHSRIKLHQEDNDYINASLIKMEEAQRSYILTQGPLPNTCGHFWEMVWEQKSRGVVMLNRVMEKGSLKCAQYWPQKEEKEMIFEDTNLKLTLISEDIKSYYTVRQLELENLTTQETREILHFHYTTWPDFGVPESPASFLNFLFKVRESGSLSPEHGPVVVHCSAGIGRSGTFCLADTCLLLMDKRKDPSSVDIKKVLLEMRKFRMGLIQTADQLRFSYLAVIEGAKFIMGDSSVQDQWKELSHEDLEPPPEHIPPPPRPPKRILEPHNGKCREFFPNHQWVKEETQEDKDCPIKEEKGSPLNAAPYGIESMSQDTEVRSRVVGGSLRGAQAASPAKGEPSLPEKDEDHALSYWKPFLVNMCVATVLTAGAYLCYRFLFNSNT

[3] = molecular target: T3, Tyrosine-protein phosphatase non-receptor type 1 (Homo sapiens, UniProt P18031); assay: as §1
T3 sequence (P18031 whole entry): T2 sequence (whole entry)

A549 = assay: Antiproliferative activity against human A549 cells at 10 uM after 24 hrs by MTS assay relative to control; assay type: functional; details: A549, 24 h
HepG2 = assay: Antiproliferative activity against human HepG2 cells at 10 uM after 24 hrs by MTS assay relative to control; assay type: functional; details: HepG2, 24 h
[4] = molecular target: T2, Tyrosine-protein phosphatase non-receptor type 1 (Homo sapiens); details: at 10 µM
Description: Inhibition of recombinant human PTP1B using pNPP as substrate at 10 uM after 30 mins relative to control

Homo sapiens = assay: Inhibition of LPS-induced NF-kappaB (unknown origin) transactivation expressed in human SW480 cells at 10 uM administered 1 hr after LPS stimulation measured after 6 hrs by luciferase reporter gene assay relative to control; assay type: cell-based
RAW264.7 = assay: Antiinflammatory activity against mouse RAW264.7 cells assessed as inhibition of LPS-induced nitric oxide production at 10 uM after 24 hrs by Griess assay relative to control; assay type: functional; details: RAW264.7, 24 h

inhibition [1] [%] | inhibition [2] | IC50 [3] [µM] | inhibition [4] [%] | Compound | inhibition at 10 µM (MCF7) [%] | inhibition at 10 µM (SW480) [%] | inhibition at 10 µM (A549) [%] | inhibition at 10 µM (HepG2) [%] | inhibition (Homo sapiens) [%] | inhibition at 10 µM (RAW264.7) [%]
2.3 | Dose-dependent effect | 5 to 7.9 | 65.1 | CC(C)=CCc1cc([C@@H]2CC(=O)c3ccc(O)c(CC=C(C)C)c3O2)ccc1O [GLABROL] | 48 | 13.6 | 3.2 | 51.3 | 28.2 | 14.7
0 | Dose-dependent effect | 5 to 7.9 | 75.8 | CC(C)=CCc1cc(/C=C/C(=O)c2ccc(O)c(CC=C(C)C)c2O)ccc1O [KANZONOL C] | 55.8 | 35.6 | 58 | 31.7 | 0 | 12.8
3.1 | Dose-dependent effect | 5 to 7.9 | 71 | CC(C)=CCc1c(O)ccc2c1O[C@H](c1ccc3c(c1)C=CC(C)(C)O3)CC2=O | 71.2 | 34.8 | 0 | 76.5 | 44.7 | 0
3.2 | Dose-dependent effect | 5 to 7.9 | 62.6 | CC(C)=CCc1cc([C@@H]2CC(=O)c3ccc4c(c3O2)C=CC(C)(C)O4)ccc1O [SHINFLAVANONE] | 36.5 | 25 | 5.1 | 16.9 | 15.5 | 11.3
15.3 | – | – | 14.2 | O=C(/C=C/c1ccc(O)cc1)c1ccc(O)cc1O [ISOLIQUIRITIGENIN] | 65.6 | 29.1 | 8.3 | 6.5 | 17.1 | 21
0 | – | – | 42 | CC1(C)C=Cc2c(ccc([C@@H]3COc4c(ccc5c4C=CC(C)(C)O5)C3)c2O)O1 [HISPAGLABRIDIN B] | 38.3 | 47.9 | 34.3 | 45.9 | 0 | 10.5
0.8 | – | – | 43.9 | CC(C)=CCc1cc([C@H]2Oc3c(ccc(O)c3CC=C(C)C)C(=O)C2O)ccc1O (some centres not stated) | 33.2 | 25.2 | 24.8 | 39 | 37 | 0
35.6 | – | – | 58.5 | CC1(C)C=Cc2c(cc(O)c3c2OCC(c2ccc(O)cc2O)C3=O)O1 (configuration not stated) | 12.7 | 29.6 | 4.3 | 37.6 | 0.1 | 1.9
50.9 | – | – | 6.1 | CC1(C)C=Cc2c(ccc3c2OCC(c2ccc(O)cc2O)=C3)O1 | 1.9 | 0 | 2.1 | 0 | 13.7 | 21.4
4.6 | – | – | 9.8 | O=C1C[C@@H](c2ccc(O)cc2)Oc2cc(O)ccc21 [LIQUIRTIGENIN] | 7.7 | 7.5 | 0 | 7 | 0 | 2.8
26.3 | – | – | 18.1 | CC1(C)C=Cc2c(ccc3c2OCc2c-3oc3cc(O)ccc23)O1 | 33.7 | 1.1 | 0 | 0 | 1.4 | 7.4
1 | – | – | 0.2 | CC1(C)C=Cc2cc(C[C@@H](O)C(=O)c3ccc(O)cc3O)ccc2O1 | 19.3 | 1.9 | 6.4 | 12.3 | 0 | 9.3
1.6 | – | – | 10.6 | CC(C)=CCc1c(O)cc(O)c2c(=O)c(-c3ccc(O)cc3)coc12 | 19.7 | 21.2 | 0 | 32.4 | 7.1 | 1.5
11.2 | – | – | 13.3 | CC1(C)C=Cc2c(ccc3c2OC[C@H]2c4ccc(O)cc4O[C@@H]32)O1 [SHINPTEROCARPIN] | 14.4 | 0 | 2.2 | 65 | 0 | 4.1
12.5 | – | – | 1.3 | CC1(C)C=Cc2c(O)ccc(-c3cc4ccc(O)cc4o3)c2O1 | 9.7 | 6.4 | 6.5 | 0 | 32.2 | 48.9
1 | – | – | 6 | CC1(C)C=Cc2c(ccc3c(=O)c(-c4ccc(O)cc4O)coc23)O1 | 42.1 | 0 | 4.9 | 30 | 1.5 | 12.1
7.6 | – | – | 16.2 | CC1(C)C=Cc2c(ccc3cc(-c4ccc(O)cc4O)c(=O)oc23)O1 [KANZONOL W] | 47.3 | 0 | 3.7 | 32.7 | 4.5 | 18.9
14.3 | – | – | 10.4 | CC(C)=CCc1cc([C@H]2Oc3cc(O)ccc3C[C@H]2O)ccc1O | 18.6 | 32.7 | 13.3 | 7.3 | 9.8 | 1.8
2.9 | – | – | 10.1 | CC1(C)C=Cc2cc([C@@H]3CC(=O)c4ccc(O)cc4O3)ccc2O1 [ABYSSINONE I] | 13.8 | 17.4 | 0 | 33.9 | 23.1 | 0
0 | – | – | 37.7 | CC(C)=CCc1cc(C[C@@H](O)C(=O)c2ccc(O)c(CC=C(C)C)c2O)ccc1O | 82.1 | 72 | 7.5 | 75.2 | 33.4 | 4.1
18.4 | – | – | 16 | CC(C)=CCc1c(O)ccc(C(=O)/C=C/c2ccc(O)cc2)c1O [ISOBAVACHALCONE] | 15.6 | 46.7 | 3.5 | 27.3 | 13.2 | 7.5
9.7 | – | – | 0.3 | CC1(C)C=Cc2c(ccc(-c3coc4cc(O)ccc4c3=O)c2O)O1 [GLABRONE] | 36.1 | 45.4 | 0 | 29.2 | 6.4 | 42
8.3 | – | – | 27 | CC(C)=CCc1cc(C[C@@H](O)C(=O)c2cc(CC=C(C)C)c(O)cc2O)ccc1O | 42.1 | 24.6 | 46.1 | 5.8 | 24.3 | 0
